Assay results published in PubChem BioAssay AID2359 (Sanford-Burnham Center for Chemical Genomics, 2010).
pEC50: −log10 of the molar value.

Molecular target: Kappa-type opioid receptor (Homo sapiens) (UniProt P41145)
Experiment: KOR agonist analogs, imaging readout, SAR follow-up, image-based (AID 2359)
Conditions: KOR agonist image-based assay (receptor translocation imaging)

Sequence of Kappa-type opioid receptor (Homo sapiens) (P41145 whole entry, looked up): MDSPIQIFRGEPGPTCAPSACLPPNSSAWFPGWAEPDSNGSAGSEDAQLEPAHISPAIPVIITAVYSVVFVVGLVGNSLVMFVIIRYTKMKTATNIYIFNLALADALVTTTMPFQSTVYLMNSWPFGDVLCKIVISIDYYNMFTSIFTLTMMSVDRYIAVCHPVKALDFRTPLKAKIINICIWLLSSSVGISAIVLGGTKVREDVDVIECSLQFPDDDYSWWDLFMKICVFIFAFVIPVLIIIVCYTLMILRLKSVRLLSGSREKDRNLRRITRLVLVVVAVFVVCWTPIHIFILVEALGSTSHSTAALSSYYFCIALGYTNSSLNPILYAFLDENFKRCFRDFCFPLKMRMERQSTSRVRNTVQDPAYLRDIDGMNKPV

pEC50	SMILES
5.00	COc1ccc(CN(Cc2ccccn2)C(=O)CN2C(=O)COc3ccccc32)cc1
5.31	CCCCN(Cc1cc2cc(C)ccc2[nH]c1=O)C(=O)c1ccccn1
